For experiment [1], the target named is T1, FmlHLD (Escherichia coli, UniProt P77588).
T1 construct: 6xHis (C); made in house; host or cells: E. coli C600, periplasm, pTRC99a
Kind of experiment: Immunofluorescence of FmlHLD binding to human bladder and kidney tissue. Also on record: species or system E. coli. Particulars: 50 μg/ml FmlHLD WT incubated with 100 μM compound. Here is the method:
The relevance of FmlH and FmlH-targeting galactosides in human UTI was assessed by performing immunofluorescence analysis of wild-type (WT) FmlHLD or mutant (K132Q) FmlHLD binding to human bladder and non-malignant kidney biopsied tissue in the presence or absence of 29β-NAc.
Frozen, de-identified human bladder and kidney sections were obtained from the Tissue Procurement Core and stored stably at −80° C. These tissue section slides were removed from the freezer and allowed to thaw at room temperature for 10-20 min. After applying a hydrophobic barrier pen around the tissue, slides were rehydrated in 200 μl buffer (5% BSA, 0.2% Triton X-100 in PBS) for 10 min. Buffer was gently aspirated and slides were blocked for 1 hr at room temperature with 200 μl buffer. Thereafter, buffer was gently aspirated and slides were incubated with 200 μl sample overnight at 4° C. Samples diluted in buffer included 50 μg/ml FmlHLD wild-type (WT), 50 μg/ml FmlHLD K132Q, and 50 μg/ml FmlHLD WT incubated with 100 μM 29β-NAc. Samples were gently aspirated and slides were washed three times in buffer for 5 min each. Next, slides were incubated with a mouse anti-FmlH polyclonal antibody (1:500 dilution in buffer) for 1 hr at room temperature. […]

Experiment [2] has as its target T1, FmlHLD. As to the kind of experiment: biochemical. Type of experiment: binding, E. coli. Particulars: for Kd: immobilized ser-TF. From the text:
Bio-layer interferometry (BLI) was used to quantitate the binding affinity of select galactosides to FmlH.
Thereafter, pins were dipped in PBS for 120 s and transferred to protein samples (varying concentration of FmlHLD or fixed concentration of FmlHLD with varying concentration of galactoside compounds) for association for 300-600 s.

Another experiment concerns CFT073. Kind of experiment: Murine chronic UTI (chronic cystitis) model, bacterial titers in bladder and kidney. The experiment is classed as in vivo, C3H/HeN mice. Particulars: 50 mg/kg transurethral, 6 hours post treatment, relative to vehicle control. Here is the method:
To assess therapeutic efficacy, galactosides were evaluated for their ability to reduce bacterial burdens in the urinary tracts of C3H/HeN mice during chronic UTI. 7-8 week old female C3H/HeN mice were obtained from Envigo (Indianapolis, IN). Mice were anesthetized and inoculated via transurethral catheterization with 50 μl of CFT073 bacterial suspension (˜1-2*10^8 CFU in total) in phosphate-buffered saline (PBS). Chronic cystitis in C3H/HeN mice was defined as urine titers of >10^4 CFU/ml lasting at least two to four weeks, as well as bladder inflammation and edema at euthanasia. […] Accordingly, high levels of CFT073 kidney colonization were also observed in control (vehicle-treated) animals. […] Compounds tested were: 29β-NAc (50 mg/kg), mannoside 4Z269 (a type 1 pilus adhesin FimH inhibitor, 50 mg/kg), or 29β-NAc+4Z269. Mice were sacrificed 6 hours post treatment and bacteria colonizing the bladder or kidney were plated for quantification. Data are presented in FIG. 9, panels A and B, as bacterial titers of CFT073 in each organ in each condition. The horizontal lines represent the means. Asterisks indicate significance (*P<0.05, **P<0.01, ***P<0.001, ****P<0.0001, two-tailed Mann-Whitney U test). Each condition was measured in two or three independent experiments with 4 or 5 mice per group per experiment.

Experiment [3] addresses T1, FmlHLD. As to the kind of experiment: biochemical. The experiment is classed as binding, E. coli. Put shortly:
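Sialidase-treated bovine submaxillary mucin (ds-BSM) coated wells, BSA-blocked, then biotinylated FmlH^LD (20 μg/mL) with or without compound for 1 h at room temperature. Bound lectin detected by streptavidin-HRP/TMB, A450.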

Experiment [4] has as its target T2, FmlH lectin domain (FmlH^LD; first 182 amino acids of CFT073 FmlH = signal sequence and lectin domain, C-terminal 6×-his tag, wild-type, biotinylated) (Escherichia coli, UniProt A0A0H2V7F6).
T2 construct: biotinylated for ELISA; wild type
Kind of experiment: ELISA-based competition assay: inhibition of biotinylated FmlH lectin domain binding to surface-immobilized desialylated bovine submaxillary mucin (ds-BSM). Also on record: species or system E. coli (uropathogenic, urosepsis isolate CFT073). As to conditions: read-out: FmlH (FmlH^LD) lectin domain (LD) IC50, FIG. 14, 20 μg/mL biotinylated FmlH^LD, compounds serially diluted 2×, 1 hour at room temperature, ds-BSM coated wells, absorbance 450 nm. Here is the method: Thereafter, wells were incubated with 200 μl blocking buffer (PBS+1% BSA) for 2 hours at 23° C., followed by incubation with 100 μl biotinylated FmlHLD diluted in blocking buffer to 20 μg/ml in the presence or absence of the tested compounds for 1 hr at 23° C. After washing 3× with PBS+0.05% TWEEN-20, 100 μl Streptavidin-HRP conjugate (BD Biosciences; 1:2000 dilution in blocking buffer) was added to each well for 1 hr at 23° C. After a final round of washing, plates were developed with 100 μl Tetramethylbenzidine (TMB, BD Biosciences) substrate, quenched within 1-2 min with 50 μl […], and absorbance measured at 450 nm.
Briefly, 1 μg bovine submaxillary mucin (Sigma) in 100 uL PBS were incubated with Immulon 4HBX 96-well plates overnight prior to treatment with 1 mU Arthrobacter ureafaciens sialidase for 1 hour at 37° C. to remove terminal sialic acid sugars. Wells were then blocked with 200 μL PBS+1% BSA for 2 hours at room temperature. Biotinylated FmlH^LD was diluted to 20 μg/mL in blocking buffer and incubated in the presence or absence of compounds serially diluted 2× down eight rows for 1 hour at room temperature. […] Total bound portion concentration was measured by the absorbance at 450 nm. IC50s were determined using the Graphpad Prism software.

T1 sequence (P77588 25-182): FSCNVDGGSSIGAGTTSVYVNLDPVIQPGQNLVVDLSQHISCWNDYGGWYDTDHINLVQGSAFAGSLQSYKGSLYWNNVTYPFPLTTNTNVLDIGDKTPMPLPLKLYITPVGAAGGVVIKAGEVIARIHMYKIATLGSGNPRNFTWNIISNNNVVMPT
T2 sequence (A0A0H2V7F6 entry or part of it): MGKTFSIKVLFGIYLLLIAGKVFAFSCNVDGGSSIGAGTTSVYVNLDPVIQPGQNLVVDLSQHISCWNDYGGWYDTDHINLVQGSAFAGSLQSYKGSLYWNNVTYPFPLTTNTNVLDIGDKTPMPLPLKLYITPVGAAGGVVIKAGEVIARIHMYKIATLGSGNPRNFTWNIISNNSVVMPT

In general, Kd refers to the constant that tells how readily two partners part at equilibrium. Usually inhibition stands for how much of the control response was suppressed. Regarding `CC(=O)N[C@H]1[C@H](Oc2ccccc2-c2cccc(C(=O)O)c2)O[C@H](CO)[C@H](O)[C@@H]1O` [Compound 29β-NAc, 2′-(2-acetamido-2-deoxy-β-D-galactopyranosyloxy)-[1,1′-Biphenyl]-3-carboxylic acid], the “FmlHLD binding to human kidney tissue” value at FmlHLD [1] is listed as “prevented binding to human kidney tissue”. Further, the “enhancement in binding affinity relative to Gal” value at FmlHLD [2] (BLI Kd ratio) is listed as ~7,800 fold. In addition, the Kd on FmlHLD [2] (Kd (μM), inhibitory constants, fixed FmlHLD, varying galactoside in solution) is 0.089 µM; at FmlHLD [2] (Kd, galactoside in solution), ~0.09 µM. The “bacterial titers of CFT073 in the bladder” value with CFT073 is “significant reduction of CFT073 in the bladders”. Besides, in the experiment on CFT073, the “bacterial titers of CFT073 in the kidney” value was “even greater clearance of CFT073 from the kidneys”. Besides, the “inhibitory potency against FmlH, in words” value at FmlHLD [3] (ELISA-based competition assay) is recorded as “most potent”. Moreover, the IC50 on FmlHLD [3] (IC50 (μM), Table 5, Gal and GalNAc inhibition of FmlH) is 0.64 µM. For the same molecule, the inhibition at 1 µM at FmlHLD [3] (read-out: PI1 (percent inhibition), galactoside at 1 μM, mean with standard error of the mean) was found to be 54.7 ± 2.8%. Also, the inhibition at 10 µM at FmlHLD [3] (read-out: PI10 (percent inhibition), galactoside at 10 μM, mean with standard error of the mean) amounted to 93%. Also, the inhibition at 100 µM on FmlHLD [3] (read-out: PI100 (percent inhibition), galactoside at 100 μM, mean with standard error of the mean) was found to be 99.5 ± 2.2%.

Take `CC(=O)N[C@H]1[C@H](Oc2ccccc2-c2cccc(C(=O)O)c2)O[C@H](CO)[C@H](O)[C@@H]1O` [D00014 row 1, 2′-(2-acetamido-2-deoxy-β-D-galactopyranosyloxy)-[1,1′-Biphenyl]-3-carboxylic acid]: the IC50 in experiment [4] was 650 nM.

The values are drawn from patent publication US11773127B2, “Compounds and methods for treating bacterial infections” (Washington University, priority 2017, dated 2023).
